These results are taken from paper PMC5048153 (Scientific Reports, 2016).

Structures are written as SMILES.

Assay [1] has as its system corticosterone-injured PC12 cells. As to the kind of experiment: Protective effects on corticosterone-injured PC12 cells (MTT). The format is cell-based, rat. Further details: key to PR (protection rate), Table S1: compounds did not shown protection effects on corticosterone-injured PC12 cells. Particulars: 24 h after treatment; for PR (protection rate), Table S1: 1.25µM; for PR (protection rate): 1.25 μM, 200 μM corticosterone. The method, then:
PC12 cells were purchased from American Type Culture Collection and were maintained in DMEM medium supplemented with penicillin (100 unit/ml), streptomycin (100 μg/ml), 5% fetal bovine serum (FBS), and 10% horse serum at 37 °C in humidified atmosphere with 5% CO2. The detailed procedures were performed referring to the reported literatures. Briefly, PC12 cells of logarithmic growth phase were collected, re-suspended and then seeded at a density of 1 × 10^5 cells per well in 96-well plates and cultured in the DMEM medium with 5% horse serum, 10% FBSfor 24 h.
After incubation with compounds, 20 μl of 5 mg/ml MTT solution was added to each well and cultured at 37 °C for 2 h–4 h. Then, the culture medium was removed, and 150 μl dimethyl sulfoxide(DMSO) was added to each well for 15 min at room temperature. The absorbance of each well was measured at 570 nm using a microplate reader. The protective rates (PR) were calculated according to equation (1).

A further assay deals with HEK293 cells. As to the kind of experiment: Cytotoxicity on HEK293 cells (MTT). The format is cell-based, human. Particulars: Homo sapiens, HEK293, 100μM, after treatment; read-out: IR (inhibitory rate) HEK293. How it is done: (§1) Human normal hepatic L02 cells, human embryonic kidney cell line 293 cells (HEK293) and Rattus myoblast cell line H9C2 cells were respectively seeded in 96-well plates at a density of 4 × 10^3 cells per well and cultured in the 1640 or DMEM medium, with the supplement of 10% fetal bovine serum, penicillin (100 unit/ml), streptomycin (100 μg/ml) in a humidified incubator with 5% CO2 for 24 h. […] The cytotoxicities of the compounds were evaluated by MTT method.

A further assay deals with L02 cells. As to the kind of experiment: Cytotoxicity on L02 cells (MTT). It is filed as cell-based, human. As to conditions: Homo sapiens, L02, 100μM, after treatment; read-out: IR (inhibitory rate) L02. How it is done: as §1

As to `COc1ccc2c(c1)C(CCNC(=O)c1cccnc1)=NCC2.O=C(O)C(=O)O` [6a-23, N-(2-(7-Methoxy-3,4-dihydroisoquinolin-1-yl)ethyl)nicotinamide oxalate], in assay [1], the “PR (protection rate), Table S1” value is on record as “-”. In addition, the inhibition at 100 µM with HEK293 cells was 57.8%; with L02 cells, 66.9%.

For the compound `COc1ccc2c(c1)C(CCNC(=O)c1ccccn1)=NCC2.O=C(O)C(=O)O` [6a-24, N-(2-(7-Methoxy-3,4-dihydroisoquinolin-1-yl)ethyl)picolinamide oxalate], the “PR (protection rate), Table S1” value in assay [1] is given as “-”. Further, the inhibition at 100 µM in the assay on HEK293 cells is 62.9%; in the assay on L02 cells, 55.8%.

Turning to `COc1ccc2c(c1)C(CCNC(=O)c1ccc(C)cc1)=NCC2.O=C(O)C(=O)O` [6a-25, N-(2-(7-Methoxy-3,4-dihydroisoquinolin-1-yl)ethyl)-4-methylbenzamide oxalate], in assay [1], the “PR (protection rate), Table S1” value is given as “-”. Also, the inhibition at 100 µM turned out to be 65.7% in the assay on HEK293 cells and 50.8% with L02 cells.

With `COc1ccc2c(c1)C(CCNC(=O)c1ccc3ccccc3n1)=NCC2.O=C(O)C(=O)O` [6a-26, N-(2-(7-Methoxy-3,4-dihydroisoquinolin-1-yl)ethyl)quinoline-2-carboxamide oxalate], the “PR (protection rate), Table S1” value in assay [1] is reported as “-”. Also, the inhibition at 100 µM was 48.6% in the assay with HEK293 cells and 42.7% in the assay with L02 cells.

As for `COc1ccc2c(c1)C(CCNC(=O)c1cc(Cl)ccc1Br)=NCC2.O=C(O)C(=O)O` [6a-27, 2-Bromo-5-chloro-N-(2-(7-methoxy-3,4-dihydroisoquinolin-1-yl)ethyl)benzamide oxalate], the “PR (protection rate), Table S1” value in assay [1] came to 10.1%. Also, in assay [1], the “PR (protection rate)” value is recorded as “above 10%”. The inhibition at 100 µM in the assay with HEK293 cells came to 51.8%; in the assay on L02 cells, 45.9%.

In the case of `COc1ccc2c(c1)C(CCNC(=O)c1cc(C(F)(F)F)ccc1Br)=NCC2.O=C(O)C(=O)O` [6a-28, 2-Bromo-N-(2-(7-methoxy-3,4-dihydroisoquinolin-1-yl)ethyl)-5-(trifluoromethyl)benzamide oxalate], the “PR (protection rate), Table S1” value in assay [1] is on record as 2.4%. Moreover, the inhibition at 100 µM with HEK293 cells is 58.5%; in the assay with L02 cells it was 43.7%.

As to `COc1ccc2c(c1)C(CCNC(=O)c1cncc(Br)c1)=NCC2.O=C(O)C(=O)O` [6a-29, 5-Bromo-N-(2-(7-methoxy-3,4-dihydroisoquinolin-1-yl)ethyl)nicotinamide oxalate], in assay [1], the “PR (protection rate), Table S1” value is recorded as “-”. The values for the inhibition at 100 µM with HEK293 cells and in the assay on L02 cells were 29.5% and 14.4%, respectively.

Consider `COc1ccc2c(c1)C(CCNC(=O)c1cc(Br)cnc1Cl)=NCC2.O=C(O)C(=O)O` [6a-30, 5-Bromo-2-chloro-N-(2-(7-methoxy-3,4-dihydroisoquinolin-1-yl)ethyl)nicotinamide oxalate], for which the “PR (protection rate), Table S1” value in assay [1] is listed as “-”. Also, the inhibition at 100 µM in the assay with HEK293 cells came to 49.1%; in the assay on L02 cells, 47.5%.

Take `COc1ccc2c(c1)C(CCNC(=O)c1ccc(Br)nc1)=NCC2.O=C(O)C(=O)O` [6a-31, 6-Bromo-N-(2-(7-methoxy-3,4-dihydroisoquinolin-1-yl)ethyl)nicotinamide oxalate]: in assay [1], the “PR (protection rate), Table S1” value was found to be 0.2%. Moreover, the inhibition at 100 µM worked out at 56.1% with HEK293 cells and 46.1% in the assay on L02 cells.

`COc1ccc2c(c1)C(CCNC(=O)NC1CC1)=NCC2.O=C(O)C(=O)O` [6b-1, 1-Cyclopropyl-3-(2-(7-methoxy-3,4-dihydroisoquinolin-1-yl)ethyl)urea oxalate]: the “PR (protection rate), Table S1” value in assay [1] was “-”. Also, the inhibition at 100 µM worked out at 19.5% in the assay with HEK293 cells and 27.2% with L02 cells.

As to `COc1ccc2c(c1)C(CCNC(=O)Nc1cccc(Cl)c1)=NCC2.O=C(O)C(=O)O` [6b-2, 1-(3-Chlorophenyl)-3-(2-(7-methoxy-3,4-dihydroisoquinolin-1-yl)ethyl)urea oxalate], the “PR (protection rate), Table S1” value in assay [1] was “-”. Also, the inhibition at 100 µM in the assay with HEK293 cells was 37.9%; in the assay on L02 cells, 38.9%.

In the case of `COc1ccc2c(c1)C(CCNC(=O)Nc1ccc(C(F)(F)F)cc1)=NCC2.O=C(O)C(=O)O` [6b-3, 1-(2-(7-Methoxy-3,4-dihydroisoquinolin-1-yl)ethyl)-3-(4-(trifluoromethyl)phenyl)urea oxalate], in assay [1], the “PR (protection rate), Table S1” value was found to be 10.7% and the “PR (protection rate)” value is given as “above 10%”. Further, the inhibition at 100 µM in the assay on HEK293 cells turned out to be 23.2%. Also, the inhibition at 100 µM with L02 cells came to 35.8%.

`COc1ccc2c(c1)C(CCNC(=O)Nc1ccccc1C(F)(F)F)=NCC2.O=C(O)C(=O)O` [6b-4, 1-(2-(7-Methoxy-3,4-dihydroisoquinolin-1-yl)ethyl)-3-(2-(trifluoromethyl)phenyl)urea oxalate]: in assay [1], the “PR (protection rate), Table S1” value came out at 11.9% and the “PR (protection rate)” value is “above 10%”. Further, the inhibition at 100 µM in the assay with HEK293 cells amounted to 29.2%. Also, the inhibition at 100 µM in the assay with L02 cells came to 57.7%.

Regarding `COc1ccc2c(c1)C(CCNC(=O)Nc1cc(Cl)c(Cl)c(Cl)c1)=NCC2.O=C(O)C(=O)O` [6b-5, 1-(2-(7-Methoxy-3,4-dihydroisoquinolin-1-yl)ethyl)-3-(3,4,5-trichlorophenyl)urea oxalate], the “PR (protection rate), Table S1” value in assay [1] is listed as “-”. Further, the inhibition at 100 µM stood at 40.1% with HEK293 cells and 40.7% in the assay on L02 cells.

As for `COc1ccc2c(c1)C(CCNC(=O)Nc1c(C)cc(C#N)cc1C)=NCC2.O=C(O)C(=O)O` [6b-6, 1-(4-Cyano-2,6-dimethylphenyl)-3-(2-(7-methoxy-3,4-dihydroisoquinolin-1-yl)ethyl)urea oxalate], the “PR (protection rate), Table S1” value in assay [1] is on record as “-”. Also, the inhibition at 100 µM in the assay with HEK293 cells and in the assay with L02 cells was < 20% in each case.

As to `COc1ccc2c(c1)C(CCNC(=O)Nc1ccc(C#N)c(F)c1)=NCC2.O=C(O)C(=O)O` [6b-7, 1-(4-Cyano-3-fluorophenyl)-3-(2-(7-methoxy-3,4-dihydroisoquinolin-1-yl)ethyl)urea oxalate], the “PR (protection rate), Table S1” value in assay [1] is “-”. In addition, the inhibition at 100 µM in the assay with HEK293 cells was 27.2%; in the assay with L02 cells, 24.7%.

In the case of `COc1ccc2c(c1)C(CCNC(=O)Nc1ccc(Br)cn1)=NCC2.O=C(O)C(=O)O` [6b-12, 1-(5-Bromopyridin-2-yl)-3-(2-(7-methoxy-3,4-dihydroisoquinolin-1-yl)ethyl)urea oxalate], the “PR (protection rate), Table S1” value in assay [1] is reported as 16.3%. In addition, the “PR (protection rate)” value in assay [1] is on record as “above 10%”. Moreover, the inhibition at 100 µM in the assay with HEK293 cells is 49.4%; in the assay with L02 cells it was 48.1%.

As to `COc1ccc2c(c1)C(CCNC(=O)Nc1cccc3ccccc13)=NCC2.O=C(O)C(=O)O` [6b-13, 1-(2-(7-Methoxy-3,4-dihydroisoquinolin-1-yl)ethyl)-3-(naphthalen-1-yl)urea oxalate], in assay [1], the “PR (protection rate), Table S1” value was “-”. The inhibition at 100 µM with HEK293 cells and with L02 cells was < 20% throughout.

Regarding `COc1ccc2c(c1)C(CCNC(=O)Nc1ccc(F)c(Cl)c1)=NCC2.O=C(O)C(=O)O` [6b-14, 1-(3-Chloro-4-fluorophenyl)-3-(2-(7-methoxy-3,4-dihydroisoquinolin-1-yl)ethyl)urea oxalate], the “PR (protection rate), Table S1” value in assay [1] is given as “-”. Further, the figures for the inhibition at 100 µM with HEK293 cells and in the assay with L02 cells were 22.8% and 47.7%, respectively.

Regarding `COc1ccc2c(c1)C(CCNC(=O)Nc1cccc([N+](=O)[O-])c1)=NCC2.O=C(O)C(=O)O` [6b-15, 1-(2-(7-Methoxy-3,4-dihydroisoquinolin-1-yl)ethyl)-3-(3-nitrophenyl)urea oxalate], the “PR (protection rate), Table S1” value in assay [1] was “-”. The inhibition at 100 µM was determined as 47.5% in the assay with HEK293 cells and 48.9% with L02 cells.

As for `COc1ccc2c(c1)C(CCNC(=O)Nc1nccs1)=NCC2.O=C(O)C(=O)O` [6b-17, 1-(2-(7-Methoxy-3,4-dihydroisoquinolin-1-yl)ethyl)-3-(thiazol-2-yl)urea oxalate], in assay [1], the “PR (protection rate), Table S1” value came to 13.9% and the “PR (protection rate)” value is given as “above 10%”. Besides, the inhibition at 100 µM with HEK293 cells is 21.9%. The inhibition at 100 µM in the assay with L02 cells amounted to 20.1%.

On to `COc1ccc2c(c1)C(CCNC(=O)Nc1ccc(Cl)c(Cl)c1)=NCC2.O=C(O)C(=O)O` [6b-18, 1-(3,4-Dichlorophenyl)-3-(2-(7-methoxy-3,4-dihydroisoquinolin-1-yl)ethyl)urea oxalate], for which, in assay [1], the “PR (protection rate), Table S1” value was 12.8% and the “PR (protection rate)” value is given as “above 10%”. Moreover, the inhibition at 100 µM in the assay on HEK293 cells came to 56.1%. Moreover, the inhibition at 100 µM with L02 cells was determined as 57.5%.

On to `COc1ccc2c(c1)C(CCNC(=O)Nc1ccccc1[N+](=O)[O-])=NCC2` [6b-19, 1-(2-(7-Methoxy-3,4-dihydroisoquinolin-1-yl)ethyl)-3-(2-nitrophenyl)ureaoxalate], for which the “PR (protection rate), Table S1” value in assay [1] is “-”. Moreover, the inhibition at 100 µM came out at 33.5% with HEK293 cells and 31.5% with L02 cells.
